Patent publication US8987314B2, “Amide, urea or sulfone amide linked benzothiazole inhibitors of endothelial lipase” (Bristol-Myers Squibb Company, priority 2012, dated 2015)
Like-named read-outs stand apart in the source and are kept apart here.

Experiments:
Endothelial lipase (EL) = Endothelial lipase (EL) (Homo sapiens (Human), UniProt Q9Y5X9); experiment: EL assay: endothelial lipase activity with fluorescent substrate A10070 in DMPG vesicles; assay type: biochemical
How it was run: (§1)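 Substrate A10070 sits in sonicated DMPG vesicles at 0.11 mole fraction. Lipase and compound preincubated 30 min, 37° C, in HEPES pH 8.0 buffer with CaCl2.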

hepatic lipase (HL) = hepatic lipase (HL) (Homo sapiens (Human), UniProt P11150); experiment: HL assay: hepatic lipase activity with fluorescent substrate A10070 in DMPG vesicles; assay type: biochemical
Chain of hepatic lipase (HL) (P11150 23-499, species assumed): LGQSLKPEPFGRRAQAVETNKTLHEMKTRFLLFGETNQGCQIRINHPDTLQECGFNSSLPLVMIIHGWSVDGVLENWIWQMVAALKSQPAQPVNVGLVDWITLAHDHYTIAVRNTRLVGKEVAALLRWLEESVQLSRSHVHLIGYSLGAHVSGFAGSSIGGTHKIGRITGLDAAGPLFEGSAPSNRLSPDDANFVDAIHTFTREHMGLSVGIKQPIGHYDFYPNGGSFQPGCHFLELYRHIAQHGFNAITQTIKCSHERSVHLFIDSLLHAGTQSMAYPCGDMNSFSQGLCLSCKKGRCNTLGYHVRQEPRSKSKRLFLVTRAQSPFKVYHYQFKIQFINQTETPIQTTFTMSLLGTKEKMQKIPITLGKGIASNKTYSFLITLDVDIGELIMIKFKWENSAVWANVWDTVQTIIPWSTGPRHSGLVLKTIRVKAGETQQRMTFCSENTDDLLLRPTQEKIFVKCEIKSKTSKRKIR
How it was run: as §1

[1] = EL from conditioned media of HT-1080 cells, 30 min incubation with compound at 37° C., A10070/DMPG vesicles
[2] = HL partially purified from conditioned media of COS cells, 30 min incubation with compound at 37° C., A10070/DMPG vesicles

Chain of Endothelial lipase (EL) (Q9Y5X9 21-500): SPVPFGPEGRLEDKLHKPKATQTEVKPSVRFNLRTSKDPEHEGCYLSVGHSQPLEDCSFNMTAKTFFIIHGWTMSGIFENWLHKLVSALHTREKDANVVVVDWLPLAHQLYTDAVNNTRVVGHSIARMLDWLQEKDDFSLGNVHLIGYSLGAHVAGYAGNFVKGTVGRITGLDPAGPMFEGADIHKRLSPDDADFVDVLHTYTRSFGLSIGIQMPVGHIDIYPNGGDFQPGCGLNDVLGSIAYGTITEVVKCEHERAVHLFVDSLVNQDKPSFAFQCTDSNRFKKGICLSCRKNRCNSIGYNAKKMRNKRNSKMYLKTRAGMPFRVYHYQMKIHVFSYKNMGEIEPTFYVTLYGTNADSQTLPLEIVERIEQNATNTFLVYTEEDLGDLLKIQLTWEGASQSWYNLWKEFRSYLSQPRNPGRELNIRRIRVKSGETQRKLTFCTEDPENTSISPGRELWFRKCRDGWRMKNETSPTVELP

IC50 (Endothelial lipase (EL); [1]) | IC50 (hepatic lipase (HL); [2]) | IC50 (Endothelial lipase (EL)) | IC50 (hepatic lipase (HL)) | Structure (SMILES)
< 10 nM | 464 nM | – | – | CS(=O)(=O)C(C(=O)NCCS(N)(=O)=O)c1nc2ccc(-c3cnn(C4CCNCC4)c3)cc2s1 (centres unmarked) [Example B98, 2-(Methylsulfonyl)-2-(6-(1-(4-piperidinyl)-1H-pyrazol-4-yl)-1,3-benzothiazol-2-yl)-N-(2-sulfamoylethyl)acetamide]
< 10 nM | 55 nM | – | – | COCCNC(=O)c1ccc(-c2ccc3nc(C(C(=O)NCCS(N)(=O)=O)S(=O)(=O)Cc4ccccc4)sc3c2)cc1 (centres unmarked) [Example B99, 4-(2-(1-(Benzylsulfonyl)-2-oxo-2-((2-sulfamoylethyl)amino)ethyl)-1,3-benzothiazol-6-yl)-N-(2-methoxyethyl)benzamide]
– | – | < 10 nM | 1240 nM | COCCS(=O)(=O)C(C(=O)NCCS(N)(=O)=O)c1nc2ccc(-c3ccc(C(=O)N4CCOCC4)cc3)cc2s1 (centres unmarked) [Example B100, 2-((2-methoxyethyl)sulfonyl)-2-(6-(4-(4-morpholinyl-carbonyl)phenyl)-1,3-benzothiazol-2-yl)-N-(2-sulfamoylethyl)acetamide]
– | – | < 10 nM | 63 nM | CS(=O)(=O)C(C(=O)NCCS(N)(=O)=O)c1nc2ccc(-c3ccc(C(=O)N4CCOCC4)cc3)cc2s1 (centres unmarked) [Example B101, 2-(methylsulfonyl)-2-(6-(4-(4-morpholinylcarbonyl)phen-yl)-1,3-benzothiazol-2-yl)-N-(2-sulfamoylethyl)a-cetamide]
– | – | 18 nM | 5290 nM | NS(=O)(=O)CCNC(=O)C(c1nc2ccc(-c3ccc(C(=O)N4CCOCC4)cc3)cc2s1)S(=O)(=O)Cc1ccccc1 (centres unmarked) [Example B102, 2-(benzylsulfonyl)-2-(6-(4-(4-morpholinylcarbonyl)phen-yl)-1,3-benzothiazol-2-yl)-N-(2-sulfamoylethyl)a-cetamide]
– | – | < 10 nM | < 10 nM | COCCS(=O)(=O)C(C(=O)NCCS(N)(=O)=O)c1nc2ccc(-c3ccccc3)cc2s1 (centres unmarked) [Example B103, 2-((2-methoxyethyl)sul-fonyl)-2-(6-phenyl-1,3-benzothiazol-2-yl)-N-(2-sulfamoylethyl)acetemide]
– | – | < 10 nM | < 10 nM | NS(=O)(=O)CCNC(=O)C(c1nc2ccc(-c3ccccc3)cc2s1)S(=O)(=O)Cc1ccccc1 (centres unmarked) [Example B104, 2-(benzylsulfonyl)-2-(6-phenyl-1,3-benzothiazol-2-yl)-N-(2-sulfamoylethyl)a-cetamide]
– | – | < 10 nM | < 10 nM | CCS(=O)(=O)C(C(=O)NCCS(N)(=O)=O)c1nc2ccc(-c3ccccc3)cc2s1 (centres unmarked) [Example B105, 2-(ethylsulfonyl)-2-(6-phenyl-1,3-benzothiazol-2-yl)-N-(2-sulfamoylethyl)a-cetamide]
– | – | < 10 nM | < 10 nM | CC(C)CS(=O)(=O)C(C(=O)NCCS(N)(=O)=O)c1nc2ccc(-c3ccccc3)cc2s1 (centres unmarked) [Example B106, 2-(isobutylsulfonyl)-2-(6-phenyl-1,3-benzothiazol-2-yl)-N-(2-sulfamoylethyl)a-cetamide]
– | – | < 10 nM | < 10 nM | CCCS(=O)(=O)C(C(=O)NCCS(N)(=O)=O)c1nc2ccc(-c3ccccc3)cc2s1 (centres unmarked) [Example B107, 2-(6-phenyl-1,3-benzothiazol-2-yl)-2-(propylsulfonyl)-N-(2-sulfamoylethyl)acetamide]
– | – | < 10 nM | 23 nM | NS(=O)(=O)CCNC(=O)C(c1nc2ccc(-c3ccc(C(=O)N4CCOCC4)cc3)cc2s1)S(=O)(=O)CCC(F)(F)F (centres unmarked) [Example B108, 2-(6-(4-(4-morpholinyl-carbonyl)phenyl)-1,3-benzothiazol-2-yl)-N-(2-sulfamoylethyl)-2-((3,3,3-trifluoropropyl)sul-fonyl)acetamide]
– | – | < 10 nM | 191 nM | CC(C)CS(=O)(=O)C(C(=O)NCCS(N)(=O)=O)c1nc2ccc(-c3ccc(C(=O)N4CCOCC4)cc3)cc2s1 (centres unmarked) [Example B109, 2-(isobutylsulfonyl)-2-(6-(4-(4-morpholinyl-carbonyl)phenyl)-1,3-benzothiazol-2-yl)-N-(2-sulfamoylethyl)acetamide]
– | – | < 10 nM | 180 nM | COCCNC(=O)c1ccc(-c2ccc3nc(C(C(=O)NCCS(N)(=O)=O)S(=O)(=O)CCC(F)(F)F)sc3c2)cc1 (centres unmarked) [Example B110, N-(2-methoxyethyl)-4-(2-(2-oxo-2-((2-sulfamoyl-ethyl)amino)-1-((3,3,3-trifluoropropyl)sulfonyl)eth-yl)-1,3-benzothiazol-6-yl)benzamide]
– | – | < 10 nM | 1460 nM | NS(=O)(=O)CCNC(=O)C(c1nc2ccc(-c3ccc(C(=O)N4CCOCC4)cc3)cc2s1)S(=O)(=O)CC1CC1 (centres unmarked) [Example B111, 2-((cyclopropylmethyl)sul-fonyl)-2-(6-(4-(4-morpholinylcarbonyl)phen-yl)-1,3-benzothiazol-2-yl)-N-(2-sulfamoylethyl)a-cetamide]
– | – | < 10 nM | 8330 nM | COCCNC(=O)c1ccc(-c2ccc3nc(C(C(=O)NCCS(N)(=O)=O)S(=O)(=O)Cc4ccc(F)cc4)sc3c2)cc1 (centres unmarked) [Example B112, 4-(2-(1-((4-fluorobenzyl)sul-fonyl)-2-oxo-2-((2-sulfamoylethyl)amino)eth-yl)-1,3-benzothiazol-6-yl)-N-(2-methoxyethyl)ben-zamide]
– | – | 0.7 nM | 48.2 nM | COCCNC(=O)c1ccc(-c2ccc3nc(C(C(=O)NCCS(N)(=O)=O)S(=O)(=O)Cc4ccc(OC(F)(F)F)cc4)sc3c2)cc1 (centres unmarked) [Example B113, N-(2-methoxyethyl)-4-(2-(2-oxo-2-((2-sulfamoyl-ethyl)amino)-1-((4-(trifluoromethoxy)ben-zyl)sulfonyl)ethyl)-1,3-benzothiazol-6-yl)ben-zamide]
– | – | 1.2 nM | 107 nM | COCCNC(=O)c1ccc(-c2ccc3nc(C(C(=O)NCCS(N)(=O)=O)S(=O)(=O)Cc4cccc(C#N)c4)sc3c2)cc1 (centres unmarked) [Example B115]
– | – | < 10 nM | 182 nM | COCCNC(=O)c1ccc(-c2ccc3nc(C(C(=O)NCCS(N)(=O)=O)S(=O)(=O)Cc4ccc(C(F)(F)F)cc4)sc3c2)cc1 (centres unmarked) [Example B116, N-(2-methoxyethyl)-4-(2-(2-oxo-2-((2-sulfamoyl-ethyl)amino)-1-((4-(trifluoromethyl)benzyl)sul-fonyl)ethyl)-1,3-benzothiazol-6-yl)ben-zamide]
– | – | < 10 nM | 176 nM | COCCNC(=O)c1ccc(-c2ccc3nc(C(C(=O)NCCS(N)(=O)=O)S(=O)(=O)Cc4cccc(F)c4)sc3c2)cc1 (centres unmarked) [Example B117, 4-(2-(1-((3-fluorobenzyl)sulfonyl)-2-oxo-2-((2-sulfamoylethyl)a-mino)ethyl)-1,3-benzothiazol-6-yl)-N-(2-methoxyethyl)benzamide]
– | – | < 10 nM | 10 nM | NS(=O)(=O)CCNC(=O)C(c1nc2ccc(-c3ccccc3)cc2s1)S(=O)(=O)CC1CC1 (centres unmarked) [Example B118, 2-((cyclopropylmethyl)sul-fonyl)-2-(6-phenyl-1,3-benzothiazol-2-yl)-N-(2-sulfamoylethyl)acetamide]
– | – | < 10 nM | 11 nM | NS(=O)(=O)CCNC(=O)C(c1nc2ccc(-c3ccccc3)cc2s1)S(=O)(=O)Cc1ccc(F)cc1 (centres unmarked) [Example B119, 2-((4-fluorobenzyl)sul-fonyl)-2-(6-phenyl-1,3-benzothiazol-2-yl)-N-(2-sulfamoylethyl)acetamide]
– | – | < 10 nM | 15 nM | N#Cc1cccc(CS(=O)(=O)C(C(=O)NCCS(N)(=O)=O)c2nc3ccc(-c4ccccc4)cc3s2)c1 (centres unmarked) [Example B120, 2-((3-cyanobenzyl)sul-fonyl)-2-(6-phenyl-1,3-benzothiazol-2-yl)-N-(2-sulfamoylethyl)acetamide]
– | – | 80 nM | 11 nM | COc1ccc(CN(Cc2ccc(OC)cc2)S(=O)(=O)CCNC(=O)C(c2nc3ccc(-c4ccccc4)cc3s2)S(C)(=O)=O)cc1 (centres unmarked) [Example B121, N-(2-(bis(4-methoxybenzyl)sulfamoyl)eth-yl)-2-(methylsulfonyl)-2-(6-phenyl-1,3-benzothiazol-2-yl)a-cetamide]
– | – | 44 nM | 631 nM | NS(=O)(=O)CCNC(=O)C(c1nc2ccc(-c3cnn(CCN4CCOCC4)c3)cc2s1)S(=O)(=O)Cc1ccccc1 (centres unmarked) [Example B122, 2-(benzylsulfonyl)-2-(6-{1-[2-(4-morpholinyl)ethyl]-1H-pyrazol-4-yl}-1,3-benzothiazol-2-yl)-N-(2-sulfamoylethyl)acetamide]
– | – | 18 nM | 400 nM | CC(C)CS(=O)(=O)C(C(=O)NCCS(N)(=O)=O)c1nc2ccc(-c3cnn(CCN4CCOCC4)c3)cc2s1 (centres unmarked) [Example B123, 2-(isobutylsulfonyl)-2-(6-{1-[2-(4-morpholinyl)eth-yl]-1H-pyrazol-4-yl}-1,3-benzothiazol-2-yl)-N-(2-sulfamoylethyl)a-cetamide]
– | – | 26 nM | 830 nM | COCCS(=O)(=O)C(C(=O)NCCS(N)(=O)=O)c1nc2ccc(Br)cc2s1 (centres unmarked) [Example B124, 2-(6-bromo-1,3-benzothiazol-2-yl)-2-((2-methoxyethyl)sulfonyl)-N-(2-sulfamoylethyl)a-cetamide]
– | – | 99 nM | 300 nM | NS(=O)(=O)CCNC(=O)C(c1nc2ccc(Br)cc2s1)S(=O)(=O)CCC(F)(F)F (centres unmarked) [Example B125, 2-(6-bromo-1,3-benzothiazol-2-yl)-N-(2-sulfamoylethyl)-2-((3,3,3-trifluoropropyl)sulfonyl)a-cetamide]
– | – | < 10 nM | 51 nM | NS(=O)(=O)CCNC(=O)C(c1nc2ccc(-c3ccnc(F)c3)cc2s1)S(=O)(=O)Cc1ccccc1 (centres unmarked) [Example B126, 2-(benzylsulfonyl)-2-(6-(2-fluoro-4-pyridinyl)-1,3-benzothiazol-2-yl)-N-(2-sulfamoylethyl)acetamide]
